In US20200030263A1, “METHODS AND COMPOSITIONS FOR PROMOTING WOUND HEALING WITH DECREASED SCAR FORMATION AFTER GLAUCOMA FILTRATION SURGERY” (United States Government as Represented by the Department …, priority 2017, published 2020):

Legend:
[1] = system: rabbit corneal endothelial cells and keratocytes after −9D PRK; test: Rabbit PRK model: in vivo safety (specular microscopy, DAPI, TUNEL)
Procedure: Briefly, corneal haze in rabbits was produced with −9.0 diopter PRK. A single application of SAHA (25 μM) or MMC (0.02%) was applied topically immediately after PRK. Effects of the two drugs were analyzed by slit-lamp microscope, specular microscope, TUNEL assay, and immunofluorescence.
(§1) A 10 mM stock solution of SAHA (Cayman Chemical Company, Ann Arbor, Mich., USA) was prepared using dimethyl sulfoxide (DMSO), and diluted to 25 μM with balanced salt solution (BSS) eye drops (Alcon). For vehicle control, the same volume of DMSO was diluted with BSS. The 0.02% Mitomycin C solution was prepared at the Harry S. Truman VA Hospital Pharmacy, Columbia, Mo. using 5 mg/ml powder (Accord Healthcare, Inc., Durham, N.C., USA) diluted with sterile normal saline. This solution was stable for 1 week at room temperature but was used within 48 hours after preparation. After PRK, rabbits were divided into 3 groups: Group-1 received a single topical application of SAHA (25 μM) for 5 minutes (n=15), Group-2 received a single topical application of MMC (0.02%) for 1 minute (n=15) and Group-3 received a single topical application of vehicle for 5 minutes (n=15). Thereafter, eyes were washed profusely with BSS. The contralateral eye served as naive control. All rabbits received clinical eye examination.
Slit-lamp (SL15, Kowa, Japan), stereo (MZ16F, Leica, Switzerland) and specular (NSP-8800, Konan, Japan) microscopes were used to evaluate ocular health, corneal haze, and corneal endothelial cells in anesthetized animals. Grading of clinical corneal haze was done using Fantes scale by three researchers (AS, MW and SG) in a masked manner. High performance digital imaging system (VK2; Kowa Tokyo, Japan) was used for corneal image analysis.
Rabbits from each group were euthanatized 3-days (n=3), 1-month (n=6), and 4-months (n=6) after PRK. Corneas were snap frozen, sectioned ([…]), and stored at −80° C. Immunofluorescence was used to detect myofibroblast marker αSMA using monoclonal antibody (M0851; Dako, Calif.). TUNEL assay (ApopTag, 57165; Billerica, Mass.) detected apoptosis and DAPI-stained nuclei determined cellular density. Sections were viewed and photographed under a fluorescence microscope (Leica, Deerfield, Ill.) equipped with a digital camera system (SpotCam RT KE; Diagnostic Instruments, MI).
Stained proteins in corneal sections were quantified using Image J software in six randomly selected areas. Standard error means were calculated. One-way ANOVA and Wilcoxon rank sum test were used for statistical analysis. The p value <0.05 was considered significant.

[2] = Stability of 0.02% Mitomycin C solution; format: physicochemical; details: 0.02% solution in sterile normal saline, room temperature
Procedure: as §1

[3] = system: rabbit model of glaucoma filtration surgery; test: Rabbit model of glaucoma filtration surgery (GFS): clinical evaluation of bleb, vascularity, IOP and tolerability; format: in vivo; details: for bleb appearance (biomicroscopy): day 3, 7, 14 after GFS, compared to flat and scarred blebs in no treatment control; for bleb area compared to untreated controls / bleb length compared to untreated controls: day 3, 7 and 14 after GFS; for bleb area compared to untreated controls: SAHA p<0.05, MMC p<0.01; for bleb length compared to untreated controls: p<0.001; for bleb vascularity score / intraocular pressure: day 7 and day 14 after GFS; for bleb vascularity score: versus no treatment control; for intraocular pressure: versus no-treatment control
Procedure: (§2) Briefly, a rabbit model of glaucoma filtration surgery (GFS) was used. Rabbits underwent GFS received Balanced Salt Solution (BSS) or SAHA (50 μM) or mitomycin C (MMC; 0.04% (w/v)). Clinical scores of intraocular pressure (TOP), bleb vascularity and slit lamp examination were performed. On postoperative day 14, rabbits were sacrificed and the bleb tissues were collected for evaluation of tissue fibrosis with H&E, Masson trichrome (MT), α-smooth muscle actin (α-SMA), and F-actin staining. Further, SAHA-mediated acetylation of histones in corneal fibroblasts and conjunctiva were determined by western blot analysis.
A 10 mM stock solution of SAHA (Cayman Chemical Company, Ann Arbor, Mich., USA) was prepared by dissolving in dimethyl sulfoxide (DMSO) and then further diluted to 50 μM with balanced salt solution (BSS) eye drops (Alcon). For vehicle control, the same volume of DMSO was diluted with BSS. The 0.04% MMC stock solution was prepared in BSS and 0.02% final dose of MMC was given to rabbits. The rabbits were divided into three treatment groups. Groups I rabbits received 100 μl subconjunctival injection of vehicle 30 minutes before the GFS surgery and group II rabbits received 100 μl subconjunctival injection of 50 μM SAHA solution 30 minutes before GFS. Group III rabbits were injected with 100 μl subconjunctival solution of 0.02% MMC 30 minutes before surgery.
Clinical evaluation was performed to check the intraocular pressure (TOP), general appearance and vascularity of the bleb. All these clinical parameters were recorded before the surgery to obtain the baseline values and on days 3, 5, 7, 10 and 14 after surgery. To measure TOP, tonometry was performed using an applanation tonometer (Tono-pen) with animals under topical anesthesia. Bleb's size was graded by measuring its width and length. Bleb vascularity was graded as 0=avascular; 1=normal vascularity; 2=hyperemic; 3=very hyperemic. Anterior chamber inflammation was assessed by slit lamp examination and graded 0=no inflammation; 1=cells present; 2=fibrin formation; 3=hypopyon present.
(§3) The results are expressed as mean±SEM. The data for bleb length, area, vascularity and IOP were analyzed by two way ANOVA and Bonferroni test using GraphPad Prism 6.0 (GraphPad Software, Inc., La Jolla, Calif.) and p<0.05 was considered to be statistical significant. The immunostaining data was analyzed using a t-test.

[4] = system: corneal haze in rabbits produced with −9.0 diopter PRK; test: Corneal haze after −9.0 diopter PRK in rabbits: efficacy (slit-lamp haze score, αSMA immunofluorescence); format: in vivo, rabbit; details: for Haze score: at 4-months after PRK, Fantes scale, single topical SAHA 25 μM 5 min or MMC 0.02% 1 min, BSS 2.7±0.4; for post-PRK corneal haze compared to no-drug treated corneas: single topical application, p<0.001
Description: Photorefractive keratectomy was used to produce corneal haze in rabbits by performing −9.0 diopter ablation with the Summit Apex excimer laser (Model: SVS APEX Plus ER; Alcon, Ft. Worth, Tex.) as reported previously. Briefly, the rabbits were anesthetized and local anesthesia of the cornea was achieved through the application of topical ophthalmic 0.5% proparacaine hydrochloride (Alcon, Fort Worth, Tex.). A wire lid speculum was placed and corneal epithelium was removed by gentle scraping with surgical Beaver blade #64 (BD Biosciences, Franklin Lakes, N.J.). […] Only one eye of each animal was used for experimentation.
A 10 mM stock solution of SAHA (Cayman Chemical Company, Ann Arbor, Mich., USA) was prepared using dimethyl sulfoxide (DMSO), and diluted to 25 μM with balanced salt solution (BSS) eye drops (Alcon). For vehicle control, the same volume of DMSO was diluted with BSS. […] After PRK, rabbits were divided into 3 groups: Group-1 received a single topical application of SAHA (25 μM) for 5 minutes (n=15), Group-2 received a single topical application of MMC (0.02%) for 1 minute (n=15) and Group-3 received a single topical application of vehicle for 5 minutes (n=15). Thereafter, eyes were washed profusely with BSS. The contralateral eye served as naive control. All rabbits received clinical eye examination.
Rabbits from each group were euthanatized 3-days (n=3), 1-month (n=6), and 4-months (n=6) after PRK. Corneas were snap frozen, sectioned (7 mm), and stored at −80° C. Immunofluorescence was used to detect myofibroblast marker αSMA using monoclonal antibody (M0851; Dako, Calif.). […] Sections were viewed and photographed under a fluorescence microscope (Leica, Deerfield, Ill.) equipped with a digital camera system (SpotCam RT KE; Diagnostic Instruments, MI).

[5] = system: site of sclerotomy in rabbit eyes after glaucoma filtration surgery; format: in vivo; details: for DAPI nuclear staining of conjunctival epithelium at site of sclerostomy: rabbit, in vivo
Procedure: as §2
On postoperative day 14, rabbits were humanely euthanized with pentobarbital (150 mg/kg) under general anesthesia. The eyes were enucleated together with the conjunctiva to preserve the bleb and snap frozen in optimal cutting temperature fluid. The tissues were sectioned and stained with hematoxylin and eosin. Masson's trichrome staining was performed to stain collagen. Immunofluorescence staining for f-actin (a marker for activated fibroblasts and myofibroblasts) was performed using Alexa Fluor® 594-conjugated phalloidin (1:40 dilution, A12381, Invitrogen Inc., Carlsbad, Calif.). Immunofluorescence staining for α-smooth muscle actin (αSMA), a marker for myofibroblasts, was performed with mouse monoclonal primary αSMA antibody (1:100 dilution, M0851; Dako, Carpinteria, Calif.). Tissue sections were incubated with 2% bovine serum albumin for 30 minutes at room temperature and then with αSMA monoclonal antibody for 90 minutes. For detection of the primary antibody, the sections were exposed to Alexa 488 goat anti-mouse IgG secondary antibody (1:500 dilution, A11001; Invitrogen Inc.) for 1 hour. The tissue sections at the site of sclerotomy and the sections on every sixth tissue slide on the either side of the sclerotomy were stained for f-actin and αSMA. After completion of immunostaining, tissue sections were mounted in medium containing DAPI (Vectashield; Vector Laboratories, Inc. Burlingame, Calif.), viewed, and photographed under a fluorescence microscope (Leica, Deerfield, Ill.) equipped with a digital camera system (SpotCam RT KE; Diagnostic Instruments, Sterling, Mich.). The stained areas in the imaged slides were quantified using Image J software.
as §3

[6] = system: human corneal endothelial cells; details: cited from earlier work
[7] = system: cultured rabbit, equine, canine and human corneal fibroblasts; details: previous studies from the lab; cited from earlier work
[8] = system: cultured corneal fibroblasts; details: 50 μM or higher dose of SAHA; earlier studies; cited from earlier work
[9] = system: acetylation of Histone H3 and H4 in human corneal fibroblast cells; test: Western blot of acetylated histones in human corneal fibroblast cells; format: cell-based; details: SAHA 2.5 μM
Procedure: (§4) Rabbits were received 100 μl subconjunctival injection of 50 μM SAHA. Cell lysates were prepared from human corneal fibroblast cells treated with SAHA (2.5 μM) at 0, 2, 4, 6, 16 and 24 hours. Rabbit conjunctival tissues were harvested at 0, 2, 6 and 24 hour time points. Cell and tissue lysates were analyzed by western blotting using anti-acetyl Histone H3, anti-acetyl histone H4 (Cell Signaling, Beverly, Mass., USA) and (3-actin (Santa Cruz biotechnology Inc., Dallas, Tex., USA) antibodies respectively. All western blots for each protein were used 3 rabbit tissues and repeated at least two times. Digital quantification of western blots was performed using NIH Image J software and Image Studio software Version 5.2

[10] = in vivo; cited from earlier work
[11] = system: acetylation of Histone H3 and H4 in rabbit conjunctiva tissue; test: Western blot of acetylated histones in rabbit conjunctiva after subconjunctival injection; format: in vivo; details: 100 μl subconjunctival 50 μM SAHA
Procedure: as §4

[12] = day 14 after GFS, versus no-treatment control
[13] = prophylactic MMC 0.02%, 10-50 seconds, nonrandomized controlled trial

SMILES: CO[C@@]12[C@H](COC(N)=O)C3=C(C(=O)C(C)=C(N)C3=O)N1C[C@@H]1N[C@@H]12 [MMC, mitomycin C]
- corneal endothelial cell phenotype and density ([1]; 1-month after PRK): significantly compromised endothelial cell phenotype and density
- apoptosis (TUNEL+ cells in stroma and endothelium) ([1]; 1-month and 4-months): many TUNEL+ cells in the stroma and endothelium
- keratocyte number and density in stroma (DAPI-staining) ([1]; 1-month and 4-months post-PRK): significant keratocyte loss
- corneal endothelial cell phenotype and density ([1]; 4-months after PRK): still had compromised endothelial cells
- apoptosis (TUNEL assay) ([1]; corneas collected at 3-days): significant apoptosis in epithelial and keratocyte cells
- stability of solution [2]: 1 week
- bleb appearance (biomicroscopy) [3]: elevated blebs but these blebs had a thin, avascular and cystic appearance
- bleb area compared to untreated controls [3]: significantly higher
- bleb length compared to untreated controls [3]: significantly higher
- bleb vascularity score [3]: very robust decrease
- intraocular pressure [3]: lower TOP compared to the no-treatment control eyes but the results were not statistically significant
- bleb vascularity by day 14 ([3]; day 14 after GFS): completely avascular
- ocular adverse findings on clinical evaluation ([3]; rabbit eyes after GFS, SAHA 50 μM or MMC 0.02% subconjunctival): corneal neovascularization and opacity
- Haze score [4]: 0.85±0.15
- post-PRK corneal haze compared to no-drug treated corneas [4]: significantly decreased
- f-actin stained area (activated fibroblasts and myofibroblasts) [5, 12]: very robust decrease
- αSMA stained area (myofibroblasts) [5, 12]: very robust decrease
- DAPI nuclear staining of conjunctival epithelium at site of sclerostomy [5]: discontinuous and highly sparse DAPI nuclear staining
- qualitative morphometric parameters or quantitative endothelial cell density ([6]; 0.02% MMC topically for 12 seconds and 40 seconds following PRK, other studies): did not have a significant effect
- corneal endothelial cells [6, 13]: significant loss of corneal endothelial cells
- haze formation after PRK [6, 13]: inhibited haze formation

SMILES: O=C(CCCCCCC(=O)Nc1ccccc1)NO [SAHA, suberoylanilide hydroxamic acid]
- differentiation of corneal fibroblasts to myofibroblasts [7]: capable of inhibiting differentiation
- apoptosis (TUNEL assay) ([1]; rabbit, in vivo): did not induce apoptosis in any cell type
- keratocyte number and density in stroma (DAPI-staining) ([1]; rabbit, in vivo): did not reduce number or density of keratocytes
- cellular viability of cultured corneal fibroblasts [8]: did not decrease cellular viability
- bleb appearance (biomicroscopy) [3]: transparent and elevated blebs
- bleb area compared to untreated controls [3]: significantly higher
- bleb length compared to untreated controls [3]: significantly higher
- bleb vascularity score [3]: significantly (p<0.01) attenuated
- intraocular pressure [3]: lower TOP compared to the no-treatment control eyes but the results were not statistically significant
- time of maximum histone H3 and H4 acetylation [9]: 6 h
- acetylation status of histone H3 and H4 ([9]; 0, 2, 4, 6, 16 and 24 hours): increase the acetylation status of histone H3 and H4
- Haze score [4]: 0.9±0.1
- post-PRK corneal haze compared to no-drug treated corneas [4]: significantly decreased
- Masson trichrome staining: collagen deposits at site of sclerotomy [5, 12]: less collagen deposits
- f-actin stained area (activated fibroblasts and myofibroblasts) [5, 12]: significant decrease
- αSMA stained area (myofibroblasts) [5, 12]: significant decrease
- H&E staining: fibrous deposit at site of sclerotomy ([5]; day 14 after GFS, control densely packed with fibrous tissue): mild fibrous deposit and a loosely arranged conjunctival tissue
- DAPI nuclear staining of conjunctival epithelium at site of sclerostomy [5]: continuous and uniform conjunctival epithelium
- plasma half-life [10]: short
- time of maximum histone H3 and H4 acetylation [11]: 6 h
- acetylation status of histone H3 and H4 ([11]; 0, 2, 6 and 24 hour): increase the acetylation status of histone H3 and H4
